Experimental data taken from ChEMBL document CHEMBL1909046, “DrugMatrix in vitro pharmacology data”.

Assays:
[1] = biological target: T1, Cysteinyl leukotriene receptor 1 (Homo sapiens, UniProt Q9Y271); type: cell membranes, CHO-K1, Membrane; conditions: cho-k1; note: in other assays of this panel Not Active means under 50% inhibition at 10 µM
T1 sequence (Q9Y271 whole entry): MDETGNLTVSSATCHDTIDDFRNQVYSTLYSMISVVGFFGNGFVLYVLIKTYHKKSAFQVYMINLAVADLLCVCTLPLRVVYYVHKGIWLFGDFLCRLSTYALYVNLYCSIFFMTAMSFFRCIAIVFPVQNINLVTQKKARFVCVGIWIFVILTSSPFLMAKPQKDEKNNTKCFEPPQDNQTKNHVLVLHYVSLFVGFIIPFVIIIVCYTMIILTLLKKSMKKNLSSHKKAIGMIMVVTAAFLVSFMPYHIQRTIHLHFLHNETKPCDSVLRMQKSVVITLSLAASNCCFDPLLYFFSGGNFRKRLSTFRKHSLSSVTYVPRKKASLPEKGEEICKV

Interstitial collagenase = biological target: T2, Interstitial collagenase (Homo sapiens, UniProt P03956); assay: biochemical; type: tissue-based, Rheumatoid synovial fibroblasts;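 note: MMP-1 enzyme inhibition assay using a peptide substrate; in other assays of this panel Not Active means under 50% inhibition at 10 µM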
T2 sequence (P03956 whole entry): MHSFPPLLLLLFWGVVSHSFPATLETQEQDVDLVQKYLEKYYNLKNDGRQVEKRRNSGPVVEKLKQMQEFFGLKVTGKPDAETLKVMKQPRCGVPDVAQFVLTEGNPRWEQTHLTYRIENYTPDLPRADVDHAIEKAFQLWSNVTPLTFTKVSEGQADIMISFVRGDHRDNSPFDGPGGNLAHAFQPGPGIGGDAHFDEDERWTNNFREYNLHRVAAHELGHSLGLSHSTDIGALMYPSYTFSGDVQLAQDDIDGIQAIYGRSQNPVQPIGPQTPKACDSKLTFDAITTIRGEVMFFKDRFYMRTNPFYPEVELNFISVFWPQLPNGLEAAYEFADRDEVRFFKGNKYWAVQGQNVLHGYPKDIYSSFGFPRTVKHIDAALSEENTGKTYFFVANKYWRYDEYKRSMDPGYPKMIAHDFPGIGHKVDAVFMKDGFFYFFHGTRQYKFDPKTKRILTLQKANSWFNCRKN

[2] = biological target: Prostaglandin G/H synthase 1 (Homo sapiens, UniProt P23219); assay: biochemical; type: tissue-based, Platelet; conditions: platelet;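 note: inhibition of COX-1 enzyme activity, with arachidonic acid supplied as substrate; in other assays of this panel Not Active means under 50% inhibition at 10 µM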
Thromboxane-A synthase = biological target: T3, Thromboxane-A synthase (Homo sapiens, UniProt P24557); assay: biochemical; type: tissue-based, Platelet; conditions: platelet;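 note: enzyme inhibition assay with PGH2 supplied as substrate; in other assays of this panel Not Active means under 50% inhibition at 10 µM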
T3 sequence (P24557 whole entry): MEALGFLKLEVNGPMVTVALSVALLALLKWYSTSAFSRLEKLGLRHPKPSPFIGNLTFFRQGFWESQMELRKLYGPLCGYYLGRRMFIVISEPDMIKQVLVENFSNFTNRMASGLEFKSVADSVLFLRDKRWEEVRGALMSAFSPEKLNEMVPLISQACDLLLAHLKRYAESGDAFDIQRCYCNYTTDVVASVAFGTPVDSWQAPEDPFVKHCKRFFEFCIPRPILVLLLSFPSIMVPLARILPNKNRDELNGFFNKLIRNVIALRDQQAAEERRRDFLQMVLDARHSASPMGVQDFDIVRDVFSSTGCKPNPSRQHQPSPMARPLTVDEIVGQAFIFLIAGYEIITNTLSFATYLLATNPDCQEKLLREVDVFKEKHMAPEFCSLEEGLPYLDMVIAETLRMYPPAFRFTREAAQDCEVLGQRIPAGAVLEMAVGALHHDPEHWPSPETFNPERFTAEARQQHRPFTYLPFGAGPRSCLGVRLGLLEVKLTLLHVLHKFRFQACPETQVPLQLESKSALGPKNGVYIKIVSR

Adenosine receptor A3 = biological target: T4, Adenosine receptor A3 (Homo sapiens, UniProt P0DMS8); type: cell membranes, CHO-K1, Membrane; conditions: cho-k1
T4 sequence (P0DMS8 whole entry): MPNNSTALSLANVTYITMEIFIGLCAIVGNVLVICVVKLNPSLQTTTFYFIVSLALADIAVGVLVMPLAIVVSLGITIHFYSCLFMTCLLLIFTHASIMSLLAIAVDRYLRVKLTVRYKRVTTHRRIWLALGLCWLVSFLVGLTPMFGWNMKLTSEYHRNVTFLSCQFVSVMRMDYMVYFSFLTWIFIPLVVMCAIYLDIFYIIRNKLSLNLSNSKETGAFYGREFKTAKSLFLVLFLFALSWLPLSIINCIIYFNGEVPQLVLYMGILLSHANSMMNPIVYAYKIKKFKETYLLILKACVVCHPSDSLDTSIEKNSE

[3] = DRUGMATRIX: Nicotinic Acetylcholine radioligand binding (ligand: [125I] Epibatidine); type: cell membranes, Membrane; conditions: imr-32; Not Active = under 50% inhibition at 10 µM

Prostaglandin G/H synthase 1, sequence (P23219 whole entry): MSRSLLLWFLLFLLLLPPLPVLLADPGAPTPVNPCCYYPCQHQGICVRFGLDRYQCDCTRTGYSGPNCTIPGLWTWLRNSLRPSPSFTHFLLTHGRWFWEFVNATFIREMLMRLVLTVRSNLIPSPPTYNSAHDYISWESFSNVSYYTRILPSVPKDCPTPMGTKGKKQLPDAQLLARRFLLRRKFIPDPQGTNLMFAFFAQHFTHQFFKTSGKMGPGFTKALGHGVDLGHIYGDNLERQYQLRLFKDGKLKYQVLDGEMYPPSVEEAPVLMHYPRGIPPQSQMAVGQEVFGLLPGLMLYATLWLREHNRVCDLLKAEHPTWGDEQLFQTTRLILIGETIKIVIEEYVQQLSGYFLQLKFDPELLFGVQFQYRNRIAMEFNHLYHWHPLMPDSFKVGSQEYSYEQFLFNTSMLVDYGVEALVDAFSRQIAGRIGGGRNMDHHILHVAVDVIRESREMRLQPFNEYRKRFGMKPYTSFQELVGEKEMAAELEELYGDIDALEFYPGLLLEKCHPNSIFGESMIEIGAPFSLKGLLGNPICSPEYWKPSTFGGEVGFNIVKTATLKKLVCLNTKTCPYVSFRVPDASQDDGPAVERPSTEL

CCCCCCNC(=O)n1cc(F)c(=O)[nH]c1=O [CARMOFUR]
Not Active: IC50 [1] | IC50 (Interstitial collagenase) | IC50 [2] | IC50 (Thromboxane-A synthase) | IC50 (Adenosine receptor A3) | IC50 [3] | Ki [3]

OC[C@H]1O[C@@H]2O[C@H]3[C@H](O)[C@@H](O)[C@@H](O[C@H]4[C@H](O)[C@@H](O)[C@@H](O[C@H]5[C@H](O)[C@@H](O)[C@@H](O[C@H]6[C@H](O)[C@@H](O)[C@@H](O[C@H]7[C@H](O)[C@@H](O)[C@@H](O[C@H]1[C@H](O)[C@H]2O)O[C@@H]7CO)O[C@@H]6CO)O[C@@H]5CO)O[C@@H]4CO)O[C@@H]3CO [ALFADEX]
Not Active: IC50 [1] | IC50 (Interstitial collagenase) | IC50 [2] | IC50 (Thromboxane-A synthase) | IC50 (Adenosine receptor A3) | IC50 [3] | Ki [3]

CC(C)NCC(O)COc1ccc(CC(N)=O)cc1 (stereo unspecified) [ATENOLOL]
Not Active: IC50 [1] | IC50 (Interstitial collagenase) | IC50 [2] | IC50 (Thromboxane-A synthase) | IC50 (Adenosine receptor A3) | IC50 [3] | Ki [3]
